Data on 29 compounds can be found in patent US11957680B2, “Pyruvate kinase activators for use in treating blood disorders” (Agios Pharmaceuticals, Inc., priority 2017, dated 2024).

For experiment [1], the target named is T1, wild type PKR (Homo sapiens, UniProt P30613). As to the kind of experiment: PKR (wild type) enzyme AC50 assay, LDH/NADH-coupled, absorbance at 340 nm. The note with it: for AC50: Table 2, enzyme assay, read-out: PKR WT AC50; for EC50: Table 4, AC50, enzyme assay, read-out: PKR WT. In kind it is biochemical. Summed up:
(§1)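 In this coupled kinetic format, PKR converts PEP and ADP to pyruvate, which LDH reduces while oxidising NADH. Test compounds, diluted from 10 mM DMSO stocks to a 100 μM top concentration, were preincubated 60 min before ADP was added.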

The next experiment deals with PKR K410E (Homo sapiens, UniProt P30613, K410E). The experiment can be described thus: PKR mutant assay (K410E), AC50, LDH/NADH-coupled, absorbance at 340 nm. The note with it: for EC50: Table 4, AC50, enzyme assay. In kind it is biochemical. Summed up: as §1
The target in the next experiment is PKR R510Q (Homo sapiens, UniProt P30613, R510Q). As to the kind of experiment: PKR mutant assay (R510Q), AC50, LDH/NADH-coupled, absorbance at 340 nm. It counts as biochemical. The note with it: for AC50: Table 2, enzyme assay, read-out: PK R510Q AC50; for EC50: Table 4, AC50, enzyme assay, read-out: PK R510Q. Summed up:
as §1

Experiment [2] deals with T1, wild type PKR. As to the kind of experiment: Cell based ATP assay in purified red blood cells (Cell-Titer-Glo). On the set-up: endogenous in cells; host or cells: purified red blood cells from healthy volunteers. The conditions noted are these: overnight at 37° C., ATP levels; for AC50 / Cell based ATP assay AC50: Table 2, RBCs. Summed up:
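ATP levels were quantified by Cell-Titer-Glo after overnight 37 °C exposure of cells to compound (1:4 dilution series, 0.1% DMSO final). The cells were human erythrocytes, filter-purified to remove leukocytes and plated at 1×10^7 cells/mL in AGAM medium.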

PKR R510Q, sequence (P30613 whole entry R510Q): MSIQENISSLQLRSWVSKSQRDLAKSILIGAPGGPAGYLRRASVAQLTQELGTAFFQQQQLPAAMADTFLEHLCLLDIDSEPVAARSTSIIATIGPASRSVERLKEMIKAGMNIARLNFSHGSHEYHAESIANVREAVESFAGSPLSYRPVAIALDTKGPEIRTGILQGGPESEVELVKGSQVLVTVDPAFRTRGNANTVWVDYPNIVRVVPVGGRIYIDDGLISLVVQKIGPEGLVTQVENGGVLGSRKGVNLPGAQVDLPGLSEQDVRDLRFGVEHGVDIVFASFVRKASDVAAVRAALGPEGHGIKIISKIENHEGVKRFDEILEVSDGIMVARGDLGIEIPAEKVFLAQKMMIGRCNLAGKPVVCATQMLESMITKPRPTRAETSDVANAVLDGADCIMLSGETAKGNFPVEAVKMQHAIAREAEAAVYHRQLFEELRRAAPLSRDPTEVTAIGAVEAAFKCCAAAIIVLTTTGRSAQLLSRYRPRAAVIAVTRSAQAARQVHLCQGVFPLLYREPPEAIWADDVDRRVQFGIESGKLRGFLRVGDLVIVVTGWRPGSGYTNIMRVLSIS
PKR K410E, sequence (P30613 whole entry K410E): as the sequence (P30613 whole entry R510Q) above, with K410E, Q510R counted along it
T1 sequence (P30613 whole entry): as the sequence (P30613 whole entry R510Q) above, with Q510R counted along it

As to `Cn1c2nc(C(O)c3ccccc3)sc2c2cnn(Cc3cccc4[nH]ncc34)c(=O)c21` (centres unmarked) [Compound 117], the concentration at half-maximal activity (AC50) (commonly the concentration giving half of the maximal activity seen) was below 300 nM on wild type PKR [1]; below 300 nM on PKR K410E (Table 2, enzyme assay); 301 to 800 nM on PKR R510Q; above 1000 nM at wild type PKR [2].
In the case of `COc1cccc(Cn2ncc3c4sc(Cc5ccc(Cl)cc5)nc4n(C)c3c2=O)c1` [Compound 31], the concentration at half-maximal activity (AC50) at wild type PKR [1] is below 300 nM; on PKR K410E (Table 2, enzyme assay), 301 to 800 nM; at PKR R510Q, below 300 nM; at wild type PKR [2] it was at most 1000 nM.
Regarding `Cn1c2nc(Cc3cnoc3)sc2c2cnn(Cc3cccc4[nH]ncc34)c(=O)c21` [Compound 185], the AC50 on wild type PKR [1] is above 800 nM; at PKR K410E (Table 2, enzyme assay), 301 to 800 nM; on PKR R510Q it was 301 to 800 nM; on wild type PKR [2], above 1000 nM.
As for `CNc1cccc(Cn2ncc3c4sc(C)nc4n(C)c3c2=O)c1` [Compound 70], the concentration at half-maximal activity (AC50) was below 300 nM on wild type PKR [1]; below 300 nM on PKR K410E (Table 2, enzyme assay); below 300 nM on PKR R510Q; at most 1000 nM at wild type PKR [2].
For `Cn1c2nc(Cc3ccc4[nH]ncc4c3)sc2c2cnn(Cc3cccc4[nH]ncc34)c(=O)c21` [Compound 154], the concentration at half-maximal activity (AC50) was below 300 nM at wild type PKR [1]; below 300 nM at PKR K410E (Table 2, enzyme assay); below 300 nM at PKR R510Q; at most 1000 nM at wild type PKR [2].
As to `COc1cccc(Cn2ncc3c4sc(C=O)nc4n(C)c3c2=O)c1` [Compound 38], the AC50 is below 300 nM at wild type PKR [1]; below 300 nM on PKR K410E (Table 2, enzyme assay); below 300 nM on PKR R510Q; above 1000 nM on wild type PKR [2].
As to `Cc1cccc(Cc2nc3c(s2)c2cnn(Cc4cccc5[nH]ncc45)c(=O)c2n3C)n1` [Compound 159], the concentration at half-maximal activity (AC50) at wild type PKR [1] was below 300 nM; at PKR K410E (Table 2, enzyme assay), below 300 nM; at PKR R510Q, below 300 nM; at wild type PKR [2], at most 1000 nM.
As to `Cc1nc2c(s1)c1cnn(Cc3cccc4c3cnn4C)c(=O)c1n2C` [Compound 76], the AC50 at wild type PKR [1] is above 800 nM; on PKR K410E (Table 2, enzyme assay), below 300 nM; at PKR R510Q, below 300 nM; on wild type PKR [2], at most 1000 nM.
For `COc1cccc(Cn2ncc3c4sc(C(=O)c5ccccc5)nc4n(C)c3c2=O)c1` [Compound 4], the concentration at half-maximal activity (AC50) on wild type PKR [1] and on PKR R510Q was above 800 nM throughout. Also, the “PKR K410E AC50” value at PKR K410E (Table 2, enzyme assay) was “No Fit”. For the same compound, the “Cell based ATP assay AC50” value on wild type PKR [2] is “No Fit”.
As for `COc1cccc(Cn2ncc3c4sc(S(=O)(=O)c5ccccc5)nc4n(C)c3c2=O)c1` [Compound 36], the AC50 on wild type PKR [1] was above 800 nM; on PKR K410E (Table 2, enzyme assay) it was 301 to 800 nM; at PKR R510Q, 301 to 800 nM; on wild type PKR [2] it was above 1000 nM.
Turning to `Cn1c2nc(S(=O)(=O)Cc3ccccc3)sc2c2cnn(Cc3cccc4[nH]ncc34)c(=O)c21` [Compound 128], the concentration at half-maximal activity (AC50) at wild type PKR [1] is below 300 nM; at PKR K410E (Table 2, enzyme assay), 301 to 800 nM; at PKR R510Q, 301 to 800 nM; on wild type PKR [2], above 1000 nM.
As for `Cn1ncc2cc(Cn3ncc4c5sc(Cc6cc[nH]n6)nc5n(C)c4c3=O)ccc21` [Compound 224], the EC50 was below 300 nM on wild type PKR [1]; below 300 nM at PKR K410E; below 300 nM on PKR R510Q; at most 1000 nM at wild type PKR [2] (Table 4, AC50, RBCs).
Regarding `COc1cccc(Cn2ncc3c4sc(C(=O)c5cccc(O)c5)nc4n(C)c3c2=O)c1` [Compound 55], the AC50 on wild type PKR [1] is 301 to 800 nM; at PKR K410E (Table 2, enzyme assay) it was above 800 nM; at PKR R510Q it was 301 to 800 nM; at wild type PKR [2], above 1000 nM.
Consider `Cn1c2nc([S+](C)[O-])sc2c2cnn(Cc3ccnc(N)n3)c(=O)c21` (centres unmarked) [Compound 97], for which the AC50 on wild type PKR [1] is above 800 nM; at PKR K410E (Table 2, enzyme assay) it was above 800 nM; at PKR R510Q, above 800 nM; on wild type PKR [2], above 1000 nM.
Turning to `CSc1nc2c(s1)c1cnn(Cc3ccc(S(N)(=O)=O)cc3)c(=O)c1n2C` [Compound 116], the AC50 at wild type PKR [1] was above 800 nM; at PKR K410E (Table 2, enzyme assay), above 800 nM; on PKR R510Q it was above 800 nM. Besides, the “Cell based ATP assay AC50” value on wild type PKR [2] is recorded as “No Fit”.
As for `Cc1nc2c(s1)c1cnn(Cc3ccc4[nH]c(=O)[nH]c4c3)c(=O)c1n2C` [Compound 61], the AC50 on wild type PKR [1] is above 800 nM; at PKR K410E (Table 2, enzyme assay), above 800 nM; on PKR R510Q, above 800 nM. For the same compound, the “Cell based ATP assay AC50” value at wild type PKR [2] was “No Fit”.
Consider `CNc1cccc(Cc2nc3c(s2)c2cnn(Cc4cccc5[nH]ncc45)c(=O)c2n3C)c1` [Compound 103], for which the AC50 on wild type PKR [1] was below 300 nM; at PKR K410E (Table 2, enzyme assay) it was below 300 nM; on PKR R510Q, below 300 nM; on wild type PKR [2], at most 1000 nM.
In the case of `Cn1c2nc(Cc3c[nH]nn3)sc2c2cnn(Cc3ccccc3)c(=O)c21` [Compound 273], the EC50 on wild type PKR [1] is above 800 nM; at PKR K410E, above 800 nM; on PKR R510Q, above 800 nM; at wild type PKR [2] (Table 4, AC50, RBCs), above 1000 nM.
Regarding `CCn1c2nc(Cc3cc[nH]n3)sc2c2cnn(Cc3ccccc3)c(=O)c21` [Compound 402], the EC50 at wild type PKR [1], at PKR K410E and at PKR R510Q was above 800 nM throughout. The “Cell based ATP assay” value on wild type PKR [2] (Table 4, AC50, RBCs) is recorded as “No Fit”.
For the compound `Cc1nc2c(s1)c1cnn(Cc3ccc(N)cc3)c(=O)c1n2C` [Compound 49], the half-maximal activity concentration (AC50) at wild type PKR [1] is above 800 nM; at PKR K410E (Table 2, enzyme assay), above 800 nM; at PKR R510Q, above 800 nM; at wild type PKR [2] it was above 1000 nM.
For `COc1ccc(Cn2ncc3c4sc(Cc5cc[nH]n5)nc4n(C)c3c2=O)cc1` [Compound 123], the half-maximal activity concentration (AC50) at wild type PKR [1] is below 300 nM; at PKR K410E (Table 2, enzyme assay) it was below 300 nM; on PKR R510Q, below 300 nM; at wild type PKR [2] it was at most 1000 nM.
For `COc1cccc(Cn2ncc3c4sc(C(F)(F)F)nc4n(C)c3c2=O)c1` [Compound 53], the concentration at half-maximal activity (AC50) on wild type PKR [1] is below 300 nM; at PKR K410E (Table 2, enzyme assay), below 300 nM; at PKR R510Q, below 300 nM; at wild type PKR [2], above 1000 nM.
Consider `CCOC(=O)c1cccc(Cn2ncc3c4sc(C)nc4n(C)c3c2=O)c1` [Compound 10], for which the AC50 at wild type PKR [1] is above 800 nM; at PKR K410E (Table 2, enzyme assay), above 800 nM; on PKR R510Q it was above 800 nM. In addition, the “Cell based ATP assay AC50” value on wild type PKR [2] was “No Fit”.
As for `Cn1c2nc(Cc3cc[nH]n3)sc2c2cnn(Cc3ccc(C(N)=O)cc3)c(=O)c21` [Compound 176], the AC50 at wild type PKR [1] was above 800 nM; on PKR K410E (Table 2, enzyme assay) it was above 800 nM; on PKR R510Q, above 800 nM; at wild type PKR [2], above 1000 nM.
For `COc1cccc(Cn2ncc3c4sc(SC)nc4n(C)c3c2=O)c1` [Compound 23], the AC50 on wild type PKR [1] was below 300 nM; at PKR K410E (Table 2, enzyme assay), below 300 nM; on PKR R510Q, below 300 nM; at wild type PKR [2], above 1000 nM.
In the case of `Cn1c2nc(Cc3ccc(C(N)=O)cc3)sc2c2cnn(Cc3cccc4[nH]ncc34)c(=O)c21` [Compound 112], the AC50 on wild type PKR [1] is above 800 nM; at PKR K410E (Table 2, enzyme assay), above 800 nM; at PKR R510Q it was above 800 nM; at wild type PKR [2], above 1000 nM.
Consider `Cn1c2nc([S+](C)[O-])sc2c2cnn(Cc3csc(N)n3)c(=O)c21` (centres unmarked) [Compound 83], for which the half-maximal activity concentration (AC50) at wild type PKR [1] is below 300 nM; at PKR K410E (Table 2, enzyme assay) it was below 300 nM; on PKR R510Q it was below 300 nM; at wild type PKR [2], at most 1000 nM.
With `Cn1c2nc([S+](C)[O-])sc2c2cnn(Cc3ccc4ccccc4n3)c(=O)c21` (centres unmarked) [Compound 102], the concentration at half-maximal activity (AC50) at wild type PKR [1] was below 300 nM; at PKR K410E (Table 2, enzyme assay), below 300 nM; at PKR R510Q, below 300 nM; at wild type PKR [2], at most 1000 nM.
For the compound `CSc1nc2c(s1)c1cnn(Cc3csc(-n4c(C)ccc4C)n3)c(=O)c1n2C` [Compound 129], the concentration at half-maximal activity (AC50) is above 800 nM at wild type PKR [1]; above 800 nM on PKR K410E (Table 2, enzyme assay); above 800 nM on PKR R510Q; above 1000 nM on wild type PKR [2].
